Results on 16 molecules are retold here after patent US20100056508A1, “AMINE DERIVATIVES AND THEIR USE IN BETA-2-ADRENORECEPTOR MEDIATED DISEASES” (ASTRAZENECA AB, priority 2006, published 2010).

Test [1] addresses T1, recombinant human adrenergic beta 1 receptors (Homo sapiens, UniProt P08588).
T1 construct: purchased Euroscreen
Kind of test: Adrenergic β1 selectivity assay, [125I]-Iodocyanopindolol binding to membranes. Particulars: inhibition of [125I]-Iodocyanopindolol binding, read-out: β1 bind pIC50 (converted). The procedure, abridged:
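Recombinant human β1 membranes in HEPES buffer pH 7.4 with 120 mM NaCl were incubated 2 hours at room temperature with 0.036 nM [^125I]-Iodocyanopindolol. Nonspecific binding defined by 10 μM propranolol; bound radioactivity counted after filtration. pIC50 from four-parameter logistic fit.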

For test [2], the target named is T2, recombinant human Dopamine Subtype D2s receptors (Homo sapiens, UniProt P14416).
T2 construct: purchased Perkin Elmer
T2 sequence (P14416 1-414 isoform P14416-2): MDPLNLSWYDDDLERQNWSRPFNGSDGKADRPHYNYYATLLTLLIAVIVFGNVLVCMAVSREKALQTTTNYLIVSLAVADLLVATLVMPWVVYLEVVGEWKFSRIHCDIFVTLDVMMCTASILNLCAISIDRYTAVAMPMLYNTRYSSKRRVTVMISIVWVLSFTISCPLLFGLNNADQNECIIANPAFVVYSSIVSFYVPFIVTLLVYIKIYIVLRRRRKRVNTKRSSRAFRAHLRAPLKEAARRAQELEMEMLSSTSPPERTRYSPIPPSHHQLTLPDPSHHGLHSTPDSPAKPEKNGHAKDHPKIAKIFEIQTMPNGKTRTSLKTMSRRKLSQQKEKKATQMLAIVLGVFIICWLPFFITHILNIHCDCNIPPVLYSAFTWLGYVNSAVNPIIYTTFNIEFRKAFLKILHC
Kind of test: Dopamine D2 selectivity assay, [3H]-spiperone binding to membranes. As to conditions: inhibition of [3H]-spiperone binding, read-out: D2 bind pIC50 (converted). The procedure, abridged: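 Human D2s receptor membranes incubated 2 h at room temperature with 0.16 nM [3H]-spiperone and test compound in HEPES buffer pH 7.4 (120 mM NaCl, 0.1% gelatin). Non-specific binding defined with 10 μM haloperidol; filter-bound radioactivity counted, pIC50 from four-parameter logistic fit.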

SMILES strings stand for the structures. Structures can show the parent of a compound that is named as a salt. Some results are limits rather than exact numbers.

T1 sequence (P08588 whole entry): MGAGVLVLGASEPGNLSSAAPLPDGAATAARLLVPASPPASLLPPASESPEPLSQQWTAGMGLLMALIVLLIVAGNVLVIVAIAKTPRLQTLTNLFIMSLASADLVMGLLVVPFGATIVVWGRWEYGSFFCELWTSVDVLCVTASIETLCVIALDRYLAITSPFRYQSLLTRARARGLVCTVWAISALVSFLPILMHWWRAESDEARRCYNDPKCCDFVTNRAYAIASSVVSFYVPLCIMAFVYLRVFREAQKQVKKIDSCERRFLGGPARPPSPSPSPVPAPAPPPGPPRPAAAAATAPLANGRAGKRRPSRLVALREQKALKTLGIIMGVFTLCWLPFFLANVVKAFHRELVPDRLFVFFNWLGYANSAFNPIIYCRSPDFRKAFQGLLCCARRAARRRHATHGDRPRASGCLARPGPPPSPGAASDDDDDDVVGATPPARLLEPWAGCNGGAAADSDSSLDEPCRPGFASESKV

Consider `C[C@H](C1CCCCC1)N(CCNCCc1ccc(O)c2c1OCC(=O)N2)C(=O)CCNCCc1ccccc1` [Example 61, (R)—N-(1-Cyclohexylethyl)-N-(2-(2-(5-hydroxy-3-oxo-3,4-dihydro-2H-benzo[b][1,4]oxazin-8-yl)ethylamino)ethyl)-3-(phenethylamino)propanamide bis(trifluoroacetate)], for which the figures for the IC50 in test [1] and in test [2] were 501 nM and 100 nM, respectively.
In the case of `Cc1cc(CCNCCC(=O)N(CCNCCc2ccc(O)c3c2OCC(=O)N3)C2CCCCCC2)ccc1F` [Example 62, N-Cycloheptyl-3-(4-fluoro-3-methylphenethylamino)-N-(2-(2-(5-hydroxy-3-oxo-3,4-dihydro-2H-benzo[b][1,4]oxazin-8-yl)ethylamino)ethyl)propanamide bis(trifluoroacetate)], the results for the IC50 in test [1] and in test [2] were 251 nM and 63.1 nM, respectively.
In the case of `O=C1COc2c(CCNCCN(C(=O)CCNCCc3ccc(Cl)cc3)C3CCCCCC3)ccc(O)c2N1` [Example 63, 3-(4-Chlorophenethylamino)-N-cycloheptyl-N-(2-(2-(5-hydroxy-3-oxo-3,4-dihydro-2H-benzo[b][1,4]oxazin-8-yl)ethylamino)ethyl)propanamide bis(trifluoroacetate)], the IC50 in test [1] is 251 nM; in test [2], 39.8 nM.
With `O=C1COc2c(CCNCCN(C(=O)CCNCCc3cc(F)ccc3F)C3CCCCCC3)ccc(O)c2N1` [Example 64, N-Cycloheptyl-3-(2,5-difluorophenethylamino)-N-(2-(2-(5-hydroxy-3-oxo-3,4-dihydro-2H-benzo[b][1,4]oxazin-8-yl)ethylamino)ethyl)propanamide bis(trifluoroacetate)], the figures for the IC50 in test [1] and in test [2] were 1260 nM and 63.1 nM, respectively.
`O=C1COc2c(CCNCCN(C(=O)CCNCCc3cc(F)cc(F)c3)C3CCCCCC3)ccc(O)c2N1` [Example 65, N-Cycloheptyl-3-(3,5-difluorophenethylamino)-N-(2-(2-(5-hydroxy-3-oxo-3,4-dihydro-2H-benzo[b][1,4]oxazin-8-yl)ethylamino)ethyl)propanamide bis(trifluoroacetate)]: the IC50 was 2510 nM in test [1] and 126 nM in test [2].
As for `O=C1COc2c(CCNCCN(C(=O)CCNCCc3cc(F)cc(Cl)c3)C3CCCCCC3)ccc(O)c2N1` [Example 66, 3-(3-Chloro-5-fluorophenethylamino)-N-cycloheptyl-N-(2-(2-(5-hydroxy-3-oxo-3,4-dihydro-2H-benzo[b][1,4]oxazin-8-yl)ethylamino)ethyl)propanamide bis(trifluoroacetate)], the IC50 in test [1] is 1580 nM; in test [2], 39.8 nM.
With `O=C1COc2c(CCNCCN(C(=O)CCNCCc3ccc(F)c(F)c3)C3CCCCCC3)ccc(O)c2N1` [Example 67, N-Cycloheptyl-3-(3,4-difluorophenethylamino)-N-(2-(2-(5-hydroxy-3-oxo-3,4-dihydro-2H-benzo[b][1,4]oxazin-8-yl)ethylamino)ethyl)propanamide bis(trifluoroacetate)], the IC50 in test [1] is 1000 nM; in test [2] it was 100 nM.
As for `O=C1COc2c(CCNCCN(C(=O)CCNCCc3cccc(Cl)c3)C3CCCCCC3)ccc(O)c2N1` [Example 68, 3-(3-Chlorophenethylamino)-N-cycloheptyl-N-(2-(2-(5-hydroxy-3-oxo-3,4-dihydro-2H-benzo[b][1,4]oxazin-8-yl)ethylamino)ethyl)propanamide bis(trifluoroacetate)], the IC50 in test [1] was 398 nM; in test [2], 100 nM.
Taken in the same sequence, the figures for `O=C1COc2c(CCNCCN(C(=O)CCNCCc3cccc(F)c3)C3CCCCCC3)ccc(O)c2N1` [Example 69, N-Cycloheptyl-3-(3-fluorophenethylamino)-N-(2-(2-(5-hydroxy-3-oxo-3,4-dihydro-2H-benzo[b][1,4]oxazin-8-yl)ethylamino)ethyl)propanamide bis(trifluoroacetate)] were 794 nM and 158 nM.
In the same order, the values of `O=C1COc2c(CCNCCN(C(=O)CCOCCc3ccccc3)C3CCCCC3)ccc(O)c2N1` [Example 70, N-Cyclohexyl-N-(2-(2-(5-hydroxy-3-oxo-3,4-dihydro-2H-benzo[b][1,4]oxazin-8-yl)ethylamino)ethyl)-3-phenethoxypropanamide trifluoroacetate] are 3980 nM and 1000 nM.
For `O=C1COc2c(CCNCCN(C(=O)CCOCCc3cccc(F)c3)C3CCCCC3)ccc(O)c2N1` [Example 74, N-Cyclohexyl-3-(3-fluorophenethoxy)-N-(2-(2-(5-hydroxy-3-oxo-3,4-dihydro-2H-benzo[b][1,4]oxazin-8-yl)ethylamino)ethyl)propanamide trifluoroacetate], the IC50 in test [1] was 2510 nM; in test [2] it was 2000 nM.
Regarding `O=C1COc2c(CCNCCN(C(=O)CCOCCc3ccc(F)cc3)C3CCCCC3)ccc(O)c2N1` [Example 75, N-Cyclohexyl-3-(4-fluorophenethoxy)-N-(2-(2-(5-hydroxy-3-oxo-3,4-dihydro-2H-benzo[b][1,4]oxazin-8-yl)ethylamino)ethyl)propanamide trifluoroacetate], the IC50 was 1260 nM in test [1] and 2000 nM in test [2].
Consider `O=C1COc2c(CCNCCN(C(=O)CCOCCc3ccccc3F)C3CCCCC3)ccc(O)c2N1` [Example 76, N-Cyclohexyl-3-(2-fluorophenethoxy)-N-(2-(2-(5-hydroxy-3-oxo-3,4-dihydro-2H-benzo[b][1,4]oxazin-8-yl)ethylamino)ethyl)propanamide trifluoroacetate], for which the IC50 is 2000 nM in test [1] and 2510 nM in test [2].
In the case of `O=C1COc2c(CCNCCN(C(=O)CCOCCc3cccc(Cl)c3)C3CCCCC3)ccc(O)c2N1` [Example 77, 3-(3-Chlorophenethoxy)-N-cyclohexyl-N-(2-(2-(5-hydroxy-3-oxo-3,4-dihydro-2H-benzo[b][1,4]oxazin-8-yl)ethylamino)ethyl)propanamide trifluoroacetate], the IC50 in test [1] is 3160 nM; in test [2], 2000 nM.
Turning to `CC[C@@H](C)N(CCNCCc1ccc(O)c2[nH]c(=O)ccc12)C(=O)CCOCCc1ccccc1.Cl` [Example 79, (R)—N-sec-Butyl-N-(2-(2-(8-hydroxy-2-oxo-1,2-dihydroquinolin-5-yl)ethylamino)ethyl)-3-phenethoxypropanamide hydrochloride], the IC50 in test [1] and in test [2] was more than 10000 nM throughout.
For `CC(C)[C@@H](C)N(CCNCCc1ccc(O)c2[nH]c(=O)ccc12)C(=O)CCOCCc1ccccc1.Cl` [Example 80, (R)—N-(2-(2-(8-Hydroxy-2-oxo-1,2-dihydroquinolin-5-yl)ethylamino)ethyl)-N-(3-methylbutan-2-yl)-3-phenethoxypropanamide hydrochloride], the IC50 in test [1] is more than 10000 nM; in test [2], 2510 nM.
